Values after ≈ are worked out from the molar mass of the structure shown. Like-named read-outs stand apart in the source and are kept apart here. Square brackets hold non-standard residues; d marks the D form. Ends that are not written are not given here. Peptide text beside a SMILES is read from it.
Key:
[1] = tested on: TNF-α secretion of LPS-stimulated RAW 264.7 cells; assay: LPS neutralisation assay (TNF-α ELISA); format: cell-based, murine; conditions: RAW 264.7, 100 ng/mL LPS, 24 h, peptide and hydrocortisone at the same concentration (hydrocortisone 10 μg/mL), LPS alone approximately 100 ng/mL
Protocol: Murine macrophage RAW 264.7 cells were cultured in 6-well plates at a density of 5 × 10^5 cells per well and allowed to adhere for 24 h at 37 °C in a 5% CO2 humidified incubator. Cells were then stimulated with 100 ng/mL LPS in the presence or absence of test peptides at varying concentrations (typically 1–100 μM). Hydrocortisone (10 μg/mL) served as the positive control for anti-inflammatory activity. After 24 h of incubation, cell culture supernatants were collected and centrifuged at 300× g for 10 min to remove cellular debris. Tumour necrosis factor-alpha (TNF-α) secretion was quantified using a mouse TNF-α ELISA Development Kit (ThermoFisher Scientific, Waltham, MA, USA) according to the manufacturer’s protocol.

[2] = tested on: Enterococcus faecalis NCTC 12697; format: cell-based
Protocol: (§2) The antimicrobial activities of the peptides were evaluated by determining their minimal inhibitory concentration (MIC) and minimal bactericidal concentration (MBC) values following reported protocols [20]. The tested microorganisms included seven Gram-negative bacterial strains (Escherichia coli ATCC 8739, E. coli ATCC-BAA 2340, E. coli NCTC 13846, Klebsiella pneumoniae ATCC 43816, K. pneumoniae ATCC BAA-2342, Pseudomonas aeruginosa ATCC 9027, Acinetobacter baumannii ATCC BAA-747), three Gram-positive bacterial strains (Staphylococcus aureus ATCC 6538, Enterococcus faecalis NCTC 12697, MRSA NCTC 12493, and the fungal strain Candida albicans ATCC 10231. For the assay, each bacterial strain was cultured overnight at 37 °C in 100 mL of medium in a flask. The cultures were then subcultured to reach the logarithmic growth phase and diluted to 5 × 10^5 CFU/mL. Peptide samples were serially diluted two-fold in microplates, with concentrations ranging from 128 μM to 1 μM. The diluted bacterial suspensions were mixed with the peptide solutions and incubated overnight at 37 °C. The MIC values were determined by measuring the absorbance of each well using a Synergy HT plate reader (Agilent, Cheshire, UK). For MBC determination, aliquots from wells showing no visible growth were inoculated onto agar plates to assess bacterial viability. Each experiment was repeated independently three times and conducted in three independent replicates.

[3] = tested on: Klebsiella pneumoniae ATCC 43816; format: cell-based
Protocol: as §2

Gram-positive bacteria = assay: Geometric mean MIC and therapeutic index, Gram-positive; format: cell-based; conditions: geometric mean of MICs
E. coli (ATCC-BAA 2340) = format: cell-based, Escherichia coli
Protocol: The peptide sensitivity was determined in different salt- and serum-containing environments. Bacterial strains were prepared following the MIC detection protocol described previously. To evaluate peptide sensitivity under physiological conditions, various concentrations of salt ions (150 mM NaCl, 4.5 mM KCl, 2 mM CaCl2, 1 mM MgCl2, 8 µM ZnCl2, 6 µM NH4Cl, or 4 µM FeCl3) and serum (10% FBS) were prepared in McCartney bottles prior to the addition of bacterial suspensions. The subcultured bacterial suspensions were then introduced to these modified media conditions. For MIC determination, the treated bacterial suspensions were diluted and dispensed into 96-well plates containing peptide solutions at graded concentrations. This assay allowed for the detection of potential alterations in MIC values, serving as an indicator of peptide sensitivity under different physiological conditions. All experiments were independently repeated three times, each with three replicates.

[4] = tested on: Escherichia coli ATCC 8739; format: cell-based
Protocol: as §2

[5] = tested on: Galleria mellonella larvae; assay: In vivo toxicity in larvae; conditions: uninfected G. mellonella larvae, injection at 1×, 2×, 4× MIC, n = 10 per group, observed five days
[6] = tested on: Staphylococcus aureus ATCC 6538; format: cell-based
Protocol: as §2

[7] = tested on: Pseudomonas aeruginosa ATCC 9027; format: cell-based
Protocol: as §2

[8] = tested on: Acinetobacter baumannii ATCC BAA-747; format: cell-based
Protocol: as §2

[9] = tested on: K. pneumoniae ATCC BAA-2342; format: cell-based, Klebsiella pneumoniae
Protocol: as §2

horse red blood cells = assay: Haemolysis assay; format: cell-based; conditions: concentration inducing 10% haemolysis of horse erythrocytes; 4% (v/v) in PBS, 2 h, 37 °C, absorbance 570 nm; no haemolysis at maximum testing concentration (128 μM) recorded as 256 μM
Protocol: The peptide cytotoxicity against mammalian erythrocytes was evaluated by haemolysis assay on horse red blood cells (E&O Laboratories Ltd., Falkirk, UK). Fresh horse blood was washed three times with PBS and resuspended to a final concentration of 4% (v/v) in PBS. The diluted blood suspension was then mixed with peptide solutions at varying concentrations and incubated for 2 h at 37 °C. Red blood cell suspensions treated with 0.1% Triton X-100 and PBS were used as controls. The Triton X-100-treated suspension was the positive control (for 100% haemolysis), while the PBS-treated suspension was the blank control. Following incubation, the mixtures were centrifuged at 1000× g for 10 min to separate erythrocytes from the supernatant. The absorbance of the supernatants was detected at 570 nm. The percentage haemolysis was calculated by following the equationPercentage Haemolysis = (AbsSample − AbsBlank)/(AbsPositive − AbsBlank) × 100%

E. coli NCTC 13846 = format: cell-based, Escherichia coli
Protocol: as §2

MRSA NCTC 12493 = format: cell-based, Staphylococcus aureus
Protocol: as §2

E. coli ATCC BAA-2340 = format: cell-based, Escherichia coli
Protocol: as §2

[10] = tested on: RAW 264.7 murine macrophages; format: cell-based; conditions: 24 h
Protocol: (§1) The peptide’s cytotoxicity against normal cell lines was detected by the MTT assay. Following resuscitation from cryopreservation (−80 °C), the cell line underwent multiple passages to ensure viability and adaptation. Cells were then seeded into 96-well plates and maintained at 37 °C in a 5% CO2 humidified atmosphere for 24 h to achieve proper adherence. After incubation, cells were serum-starved for 4 h using foetal bovine serum (FBS)-free medium (ThermoFisher, Waltham, MA, USA) to synchronise cell cycle progression. Peptide solutions were prepared at concentrations ranging from 128 μM to 1 μM (serial two-fold dilutions) and applied to the cells. Following peptide treatment, 10 μL of MTT (3-(4,5-dimethylthiazol-2-yl)-2,5-diphenyltetrazolium bromide) solution (5 mg/mL in PBS) was added to each well and incubated for 2 h at 37 °C. The medium was then carefully aspirated, and 100 μL of DMSO was added to dissolve the formazan crystals. Absorbance was measured at 570 nm using a microplate reader (Agilent, Cheshire, UK), with a reference wavelength of 630 nm to account for background interference. Experiments were conducted in triplicate and repeated three independent times.

[11] = tested on: HMEC-1 human microvascular endothelial cells; format: cell-based; conditions: 24 h
Protocol: as §1

[12] = tested on: HaCaT human keratinocytes; format: cell-based; conditions: 24 h
Protocol: as §1

[13] = tested on: HEK 293 human embryonic kidney cells; format: cell-based
Protocol: as §1

[14] = tested on: MRC-5 human embryonic lung fibroblasts; format: cell-based; conditions: 24 h
Protocol: as §1

Gram-negative bacteria = assay: Geometric mean MIC and therapeutic index, Gram-negative; format: cell-based; conditions: geometric mean of MICs
[15] = first value of MIC/MBC cell, 5 × 10^5 CFU/mL, overnight 37 °C, absorbance
[16] = second value of MIC/MBC cell, agar plating

Compound | GM MIC Gram-Positive (Gram-positive bacteria) [µM] | MIC, FBS (E. coli (ATCC-BAA 2340); ATCC-BAA 2340) [µM] | MIC, Fe^3+ (E. coli (ATCC-BAA 2340); ATCC-BAA 2340) [µM] | MIC, K^+ (E. coli (ATCC-BAA 2340); ATCC-BAA 2340) [µM] | MIC, Mg^2+ (E. coli (ATCC-BAA 2340); ATCC-BAA 2340) [µM] | MIC, NH4^+ (E. coli (ATCC-BAA 2340); ATCC-BAA 2340) [µM] | MIC, Na^+ (E. coli (ATCC-BAA 2340); ATCC-BAA 2340) [µM] | MBC, E. coli (ATCC 8739) ([4]; ATCC 8739) [µM] | MBC, P. aeruginosa (ATCC 9027) [7] | MIC, P. aeruginosa (ATCC 9027) [7] | MBC, K. pneumoniae (ATCC BAA-2342) [9] [µM] | MIC, K. pneumoniae (ATCC BAA-2342) [9] [µM] | HC10 (horse red blood cells) [µM] | MBC, E. coli (NCTC 13846) (E. coli NCTC 13846) [µM] | MIC, E. coli (NCTC 13846) (E. coli NCTC 13846) [µM] | MBC, MRSA (NCTC 12493) (MRSA NCTC 12493) [µM] | MIC, MRSA (NCTC 12493) (MRSA NCTC 12493) [µM] | MBC, E. coli (ATCC BAA-2340) (E. coli ATCC BAA-2340) [µM] | MIC, E. coli (ATCC BAA-2340) (E. coli ATCC BAA-2340) [µM] | further results
C[C@]12CCC(=O)C=C1CC[C@@H]1[C@@H]2[C@@H](O)C[C@@]2(C)[C@H]1CC[C@]2(O)C(=O)CO [hydrocortisone] | – | – | – | – | – | – | – | – | – | – | – | – | – | – | – | – | – | – | – | TNF-α level after LPS stimulation [1]: approximately 22.3 ng/mL
GLLSVLGSLKLIVPHVVPLIAEKL-NH2 [Caerin 1.1-LC] | 14.25 | 32 | 16 | 16 | 32 | 16 | 16 | 64 | 128 µM | 64 µM | 64 | 16 | 37.5 | 32 | 4 | 128 | 32 | 16 | 8 | MBC, E. faecalis (NCTC 12697) ([2]; NCTC 12697): >128 µM; MIC, E. faecalis (NCTC 12697) ([2]; NCTC 12697): >128 µM; MBC, K. pneumoniae (ATCC 43816) ([3]; ATCC 43816): 64 µM; MIC, K. pneumoniae (ATCC 43816) ([3]; ATCC 43816): 16 µM; MIC, Ca^2+ (E. coli (ATCC-BAA 2340); ATCC-BAA 2340): 64 µM; MIC, E. coli (ATCC 8739) ([4]; ATCC 8739): 16 µM; toxicity to larvae (mortality) [5]: complete mortality by day four or five post-injection; MBC, S. aureus (ATCC 6538) ([6]; ATCC 6538): 128 µM; MIC, S. aureus (ATCC 6538) ([6]; ATCC 6538): 64 µM; MBC, A. baumannii (ATCC BAA-747) ([8]; ATCC BAA-747): 128 µM; MIC, A. baumannii (ATCC BAA-747) ([8]; ATCC BAA-747): 16 µM; IC50 [10]: 6 µM; IC50 [11]: 79.3 µM; IC50 [12]: 61.2 µM; IC50 ([13]; 24 h): 10.8 µM; IC50 [14]: 14.8 µM
CC[C@H](C)[C@H](NC(=O)[C@H](CCCCN)NC(=O)[C@@H]1CCCN1C(=O)[C@H](NC(=O)[C@H](NC(=O)[C@H](Cc1c[nH]cn1)NC(=O)[C@@H]1CCCN1C(=O)[C@@H](NC(=O)[C@@H](NC(=O)[C@H](CCCCN)NC(=O)[C@H](CCCCN)NC(=O)[C@H](CC(C)C)NC(=O)[C@H](CO)NC(=O)[C@H](CCCCN)NC(=O)[C@H](CC(C)C)NC(=O)[C@@H](NC(=O)[C@H](CO)NC(=O)[C@H](CC(C)C)NC(=O)[C@H](CC(C)C)NC(=O)CN)C(C)C)[C@@H](C)CC)C(C)C)C(C)C)C(C)C)C(=O)N[C@@H](C)C(=O)N[C@@H](CCC(=O)O)C(=O)N[C@@H](CCCCN)C(=O)N[C@@H](CC(C)C)C(N)=O [Caerin 1.1-LC 7.11.19K.V(D)V(D)] (H-GLLSVLKSLKKIVPH[dV][dV]PKIAEKL-NH2) | 128 | 16 (≈ 41.7 µg/mL) | 4 (≈ 10.4 µg/mL) | 4 (≈ 10.4 µg/mL) | 32 (≈ 83.5 µg/mL) | 4 (≈ 10.4 µg/mL) | 16 (≈ 41.7 µg/mL) | 4 (≈ 10.4 µg/mL) | 4/4 µM | 4/4 µM | 32 (≈ 83.5 µg/mL) | 16 (≈ 41.7 µg/mL) | 256 | 8 (≈ 20.9 µg/mL) | 8 (≈ 20.9 µg/mL) | 64 (≈ 167 µg/mL) | 64 (≈ 167 µg/mL) | 4 (≈ 10.4 µg/mL) | 4 (≈ 10.4 µg/mL) | MIC, E. faecalis (NCTC 12697) [2, 15]: >128 µM; MBC, E. faecalis (NCTC 12697) [2, 16]: >128 µM; MIC, K. pneumoniae (ATCC 43816) [3, 15]: 64 µM (≈ 167 µg/mL); MBC, K. pneumoniae (ATCC 43816) [3, 16]: 128 µM (≈ 334 µg/mL); GM MIC Gram-Negative (Gram-negative bacteria): 9.75 µM; MIC, Control (E. coli (ATCC-BAA 2340); ATCC-BAA 2340): 4 µM (≈ 10.4 µg/mL); MIC, Ca^2+ (E. coli (ATCC-BAA 2340); E. coli (ATCC-BAA 2340), medium with 2 mM CaCl2): 128 µM (≈ 334 µg/mL); MIC, E. coli (ATCC 8739) ([4]; first value of MIC/MBC cell, 5 × 10^5 CFU/mL, peptide 128 to 1 μM two-fold, overnight 37 °C, absorbance, repeated three times): 2 µM (≈ 5.22 µg/mL); MIC, S. aureus (ATCC 6538) [6, 15]: 128 µM (≈ 334 µg/mL); MBC, S. aureus (ATCC 6538) [6, 16]: 128 µM (≈ 334 µg/mL); MIC, A. baumannii (ATCC BAA-747) [8, 15]: 32 µM (≈ 83.5 µg/mL); MBC, A. baumannii (ATCC BAA-747) [8, 16]: 128 µM (≈ 334 µg/mL); IC50 ([13]; MTT, peptide 128 to 1 μM, absorbance 570 nm, triplicate, three independent repeats, NI = no inhibition activity, read-out: IC50, HEK 293): 130 µM

From PMC12655529, “Serendipitous Hinge Modulation Hypothetically Reprograms Caerin 1.1-LC Antibacterial Mechanism and Gram-Negative Selectivity” (Pharmaceutics, 2025)
